Patent publication US6444668B1 (Wyeth, priority 1999, dated 2002)

Work on `CC1(C)OC(=O)Nc2ccc(-c3cccc(C#C[Si](C)(C)C)c3)cc21` yielded a melting point of 240 to 242 °C. For `CC1(C)OC(=O)Nc2ccc(-c3cc([N+](=O)[O-])cc([N+](=O)[O-])c3)cc21`, the melting point was 297 to 298 °C. Compound `COc1cccc(-c2ccc3c(c2)C(C)(C)OC(=O)N3)c1` [Example 6, 6-(3-Methoxy-phenyl)-4,4dimethyl-1,4-dihydro-benzo[d][1,3]-oxazin-2-one] has a melting point of 164 to 165 °C. Compound `CC1(C)OC(=O)Nc2ccc(-c3ccccc3Cl)cc21` [Example 7, 6-(2-Chloro-phenyl)-4,4-dimethyl-1,4-dihydro-benzo[d][1,3]oxazin-2-one] has a melting point of 181 to 182 °C. Compound `CC1(C)OC(=O)Nc2ccc(-c3ccc(Cl)cc3)cc21` [Example 8, 6-(4-Chloro-phenyl)-4,4-dimethyl-1,4-dihydro-benzo[d][1,3]-oxazin-2-one] has a melting point of 255 to 257 °C. For `CC1OC(=O)Nc2ccc(-c3cccc(Cl)c3)cc21` (stereo not drawn) [Example 9, 6-(3-Chloro-phenyl)-4-methyl-1,4-dihydro-benzo[d][1,3]oxazin-2-one], the melting point was 155 to 156 °C. Work on `CCC1OC(=O)Nc2ccc(-c3cccc(Cl)c3)cc21` (stereo not drawn) [Example 10, 6-(3-Chloro-phenyl)-4-ethyl-1,4-dihydro-benzo[d][1,3]oxazin-2-one] yielded a melting point of 146 to 148 °C. `O=C1Nc2ccc(-c3cccc(Cl)c3)cc2C(c2ccccc2)O1` (stereo not drawn) [Example 11, 6-(3-Chloro-phenyl)-4-phenyl-1,4-dihydro-benzo [d][1,3]oxazin-2-one] showed a melting point of 177 to 178 °C. For `CC1(C)OC(=O)Nc2ccc(-c3cccc([N+](=O)[O-])c3)cc21` [Example 13, 4,4Dimethyl6-(3-nitrophenyl)-1,4dihydrobenzo[d][1,3]oxazin-2-one], the melting point was 244 to 245 °C. For `CCC1(CC)NC(=O)Oc2ccc(-c3cccc(Cl)c3)cc21` [Example 25, 6-(3-Chlorophenyl)-4,4-diethyl-1,4-dihydrobenzo[d][3,1]oxazin-2-one], the melting point was 150 to 151 °C. In the case of `O=C1Nc2ccc(-c3cccc(Cl)c3)cc2C2(CCCC2)O1` [Example 31, 6-(3-Chlorophenyl)-spiro-[4H-3,1-benzoxazine-4,1′-cyclopentane]-2(1H)-one], the melting point is reported as 140 to 145 °C. For `O=C1Nc2ccc(-c3cccc([N+](=O)[O-])c3)cc2C2(CCCCC2)O1` [Example 32, 6-(3—Nitrophenyl)-spiro[4H-3,1-benzoxazine-4,1′-cyclohexan]-2(1H)-one], the melting point was 245 to 246 °C. `C=CCC1(C)OC(=O)Nc2ccc(-c3cccc(Cl)c3)cc21` (stereo not drawn) [Example 36, 4-Allyl-6-(3-chlorophenyl)-4-methyl-1,4-dihydro-benzo[d][1,3]oxazin-2-one] gave a melting point of 128 to 129 °C. In the case of `CC1(c2ccccc2)OC(=O)Nc2ccc(-c3cccc(Cl)c3)cc21` (stereo not drawn) [Example 39, 6-(3-Chlorophenyl)-4-methyl-4-phenyl-1,4dihydro-benzo[d][1,3]oxazin-2-one], the melting point is reported as 179 to 180 °C. In the case of `CC1(Cc2ccccc2)OC(=O)Nc2ccc(-c3cccc(Cl)c3)cc21` (stereo not drawn) [Example 40, 4-Benzyl-6-(3-chloro-phenyl)-4-methyl-1,4-dihydro-benzo[d][1,3]oxazin-2-one], the melting point is reported as 187 to 188 °C. `CC1(C2CC2)OC(=O)Nc2ccc(-c3cccc(Cl)c3)cc21` (stereo not drawn) [Example 41, 6(3-Chloro-phenyl)-4-cyclopropyl-4-methyl-1,4-dihydro-benzo [d][1,3]oxazin-2-one] showed a melting point of 158 to 159 °C. Compound `CC#CC1(C2CC2)OC(=O)Nc2ccc(-c3cccc(Cl)c3)cc21` (stereo not drawn) [Example 42, 6-(3-Chloro-phenyl)-4-cyclopropyl-4-propyn-1-yl-1,4-dihydro-benzo [d][1,3]oxazin-2-one] has a melting point of 178 to 179 °C. For `CC#CC1(C#CC)OC(=O)Nc2ccc(-c3cccc(Cl)c3)cc21` [Example 44, 6(3-Chloro-phenyl)-4,4dipropyn-1-yl-1,4dihydrobenzo[d][1,3]oxazin-2-one], the melting point was 151 °C (dec.).
